For one compound, IC50 and EC50 results are on record in patent US11590117B2, “Treatment of a hematologic malignancy with 2-(4-chlorophenyl)-n-((2-(2,6-dioxopiperidin-3-yl)-1-oxoisoindolin-5-yl)methyl)-2,2-difluoroacetamide” (priority 2016, dated 2023).

Experiment [1] deals with AML cell lines. Put plainly: CellTiter-Glo (CTG) cell proliferation assay, 72 hours, panel of 11 AML cell lines. Type of experiment: cell-based. Particulars: Homo sapiens, 10 out of the 11 AML cell lines tested (sensitive lines), read-out: antiproliferative IC50 values (range). On the procedure: Preparation of Solutions of Test Article: Compounds were plated into black 384-well plates (Corning Inc.) to a final DMSO volume of 0.1% assuming a maximal volume of 50 μL. A 10-point dose response starting at 10 μM with a 1:3 dilution was printed in duplicate by acoustic dispense using the EDC ATS-100 platform.
Cell Proliferation Assays: The effect of Compound 1 on the proliferation/viability of the hematological cell lines (Table 1 Table, Table 2 and Table 3), THLE-2, or PBMCs was assessed after 72 hours incubation using CTG (Promega), according to manufacturer's instructions. Hematological cell lines were dispensed into compound plates by a Multidrop™ Combi Reagent Dispenser (Thermo Scientific, Waltham, Mass.) at a concentration of 0.1 to 0.3×10^6 cells per mL in a 50 μL total volume. […] At 72 hours, 25 μL per well of CTG was dispensed by a Multidrop™ Combi Reagent Dispenser and adenosine triphosphate (ATP) release by viable cells was measured as relative luminescence units after 30 minutes using the Envision platform.
Results. […] Compound 1 inhibited cell proliferation in 10 out of 11 AML cell lines assessed, as determined by the quantitative assessment of ATP levels present in the media after 72 hours. […]
Proliferation was assessed using the CellTitre-Glo® assay. […] The IC50 for inhibition of cell growth by Compound 1 was determined for each cell line using ActivityBase software.
In general terms: Cellular ATP, detected with luciferase, serves as a proxy for viable cell number.

The subject of experiment [2] is Red-labeled AML cell lines. Put plainly: IncuCyte live cell imaging of cell viability, sub-panel of twelve Red-labeled AML cell lines. Type of experiment: cell-based. Particulars: Homo sapiens, 96 h. On the procedure: Derivation of Red-labeled Acute Myeloid Leukemia Cell Lines: Twelve cell lines, including AML-193, HL-60, KG-1, ML-2, MOLM-13, MV-4-11, NOMO-1, OCI-AML2, OCI-AML3, SIG-M5, TF-1, and THP-1, were stably transduced with Red lentivirus. Cells were plated in 6-well plates in growth media, incubated with 8 µg/mL polybrene (EMD Millipore Cat no. TR-1003-G) followed by infection with CellPlayer™ NucLight™ Red-lentiviral particles (Essen Biosciences Cat no. 4478) at a multiplicity of infectivity (MOI) of 0.5 to 2.5 for 24 hours. MOI refers to the ratio of virus particles to cells. Virus-containing media was replaced with fresh growth media and incubated for an additional 24 to 48 hours, followed by selection with Zeocin (500 to 2000 μg/mL), a derivative of bleomycin (Life Technologies-Invitrogen Cat no. R250-01). Cells were selected with fresh Zeocin every 3 to 4 days for 3 to 8 weeks. Cells were periodically viewed using fluorescent microscopy for nuclear-restricted red fluorescence. Zeocin selection was terminated once the population was confirmed to stably fluoresce red. All Red-labeled cell lines were acclimated to EMEM containing 20% FBS, with or without GM-CSF supplementation, allowing for optimal live cell imaging.
Incubation of Cell Cultures with Compound 1: Compound 1 was provided for studies by Celgene chemistry group at a stock concentration of 30 mM in 20 μL dimethyl sulfoxide (DMSO) frozen. Costar 96-well cell culture plates (Corning Cat no. 3595) were coated with 100 μL of 10 µg/mL fibronectin (Sigma-Aldrich Cat no. F1141) for 4 hours at 37° C. and immediately used or refrigerated overnight for later use. Cells (3000 to 6000 cells) were plated in growth medi in fibronectin-coated 96-well plates and incubated for a minimum of a few hours to overnight. Cells were incubated with a 12-point concentration response in triplicate with Compound 1 ([…]) including DMSO and Media controls. A 3-fold serial dilution of Compound 1 starting from a concentration of 200 μM in 0.6% DMSO (diluted in Media) was performed. For most sensitive cell lines, a 3-fold serial dilution of Compound 1 starting from a concentration of 20 μM in 0.6% DMSO (diluted in media) was performed. A volume of 5 μL or 10 μL for each dilution was added to 100 μL or 200 μL cells, respectively (0.3% DMSO final) and incubated for live cell imaging.
Live Cell Imaging on IncuCyte Zoom: Following incubation of cells with Compound 1, diluted Caspase 3/7 reagent (Essen Biosciences Cat no. 4440) is added to each well. […] Caspase-3/7 activation was quantified using the IncuCyte™ ZOOM basic analyzer. […]
Twelve Red-labeled human AML cell lines, established as described above, were incubated with Compound 1 dose range (0 to 10 μM) and Red fluorescence or Object count was imaged over time, as described above. […]

Like-named read-outs stand apart in the source and are kept apart here.

In the case of `O=C1CCC(N2Cc3cc(CNC(=O)C(F)(F)c4ccc(Cl)cc4)ccc3C2=O)C(=O)N1` (centres unmarked) [Compound 1, 2-(4-chlorophenyl)-N-((2-(2,6-dioxopiperidin-3-yl)-1-oxoisoindolin-5-yl)methyl)-2,2-difluoroacetamide], in experiment [1], the IC50 was in the range of 3 to 75 nM. Also, the EC50 in experiment [2] (four moderately sensitive cell lines (TF-1, THP-1, SIG-M5, OCI-AML3), read-out: cell viability EC50 96hr (range)) was 58 to 186 nM; in experiment [2] (four moderately sensitive cell lines, read-out: cell viability average EC50 96hr), 121 nM; in experiment [2] (seven highly sensitive cell lines (AML-193, ML-2, HL-60, KG-1, NOMO-1, MV-4-11, OCI-AML2), read-out: cell viability EC50 96hr (range)) it was 2 to 40 nM; in experiment [2] (seven highly sensitive cell lines, read-out: cell viability average EC50 96hr), 15 nM.

By IC50 is commonly meant the concentration that gives 50% inhibition. As usually defined, the EC50 is the concentration that produces a half-maximal response.
